From ChEMBL document CHEMBL1201862, “PubChem BioAssay data set” (2004) come the findings set out here.

Test systems include LOX IMVI; NCI-H522; SN12C; NCI-H23; NCI-H460; OVCAR-4; MOLT-4; IGROV-1; HT-29; LXFL 529; RXF 393; HCC 2998; SNB-19; NCI-H226; HL-60; A498; 786-0; UACC-62; U-251; NCI/ADR-RES.
Common to all, as to experiment: NCI-60 cell line screen, 48 h

Molecules are shown by their SMILES.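 48-hour exposure; five concentrations; linearly interpolated endpoints. GI50 marks 50% less growth.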 Activity calls are given as the source filed them. No stated cut-off is given here; in the data, active = GI50 up to about 1.1 µM and inactive = higher.

Consider `N=C1C=CC(=C(c2ccc(N)cc2)c2ccc(N)cc2)C=C1`, for which the GI50 in the test on LOX IMVI is 3.91 µM (inactive); with NCI-H522, 2.64 µM (inactive); in the test with SN12C it was 0.444 µM (active); in the test with NCI-H23, 3.63 µM (inactive); in the test on NCI-H460, 3.61 µM (inactive); with OVCAR-4, 9.93 µM (inactive). In addition, the GI50 with MOLT-4 is 3.73 µM (inactive); with IGROV-1, 9.86 µM (inactive); in the test with HT-29, 3.77 µM (inactive); in the test with LXFL 529, 1.57 µM (inactive); in the test on RXF 393, 6.5 µM (inactive); in the test on HCC 2998 it was 4.93 µM (inactive). The GI50 in the test with SNB-19 is 0.532 µM (active); in the test on NCI-H226, 3.68 µM (inactive); with HL-60, 3.85 µM (inactive); in the test on A498, 6.97 µM (inactive); in the test on 786-0 it was 2.36 µM (inactive); in the test with UACC-62 it was 3.87 µM (inactive). Further, the GI50 in the test on U-251 is 0.406 µM (active); in the test with NCI/ADR-RES, 16.2 µM (inactive).
Take `CCC[C@H]1O[C@@H]2CC(=O)O[C@@H]2C2=C1C(=O)C=CC2=O`: the GI50 with LOX IMVI is 21 µM (inactive); with NCI-H522, 2.2 µM (inactive); in the test with SN12C, 18.1 µM (inactive); in the test with NCI-H23, 13.6 µM (inactive); in the test on NCI-H460 it was > 100 µM (inactive); with OVCAR-4, 16.3 µM (inactive). Moreover, the GI50 in the test on MOLT-4 was 3.32 µM (inactive); in the test with IGROV-1, 18 µM (inactive); in the test with HT-29 it was 22 µM (inactive); with LXFL 529 it was 15.6 µM (inactive); in the test with RXF 393 it was 16 µM (inactive); with HCC 2998, > 43.1 µM (inactive). In addition, the GI50 in the test on SNB-19 was > 60.4 µM (inactive); in the test with NCI-H226, 13.7 µM (inactive); with HL-60, 5.7 µM (inactive); in the test on A498, 34.2 µM (inactive); in the test with 786-0, 16.3 µM (inactive); in the test on UACC-62, 17.9 µM (inactive). For the same molecule, the GI50 in the test on U-251 is > 39.4 µM (inactive).
With `COC(=O)C1Cc2c([nH]c3ccccc23)C(c2ccccc2O)N1Cc1ccccc1` (stereo not given), the GI50 in the test on LOX IMVI was 44.9 µM (inactive); in the test with NCI-H522, 16.4 µM (inactive); with SN12C it was 36 µM (inactive); in the test with NCI-H23 it was 44.3 µM (inactive); in the test with NCI-H460 it was 30.8 µM (inactive); in the test with OVCAR-4 it was 24.4 µM (inactive). Also, the GI50 in the test with MOLT-4 was 42.1 µM (inactive); with IGROV-1, 25.5 µM (inactive); in the test on HT-29, 28.2 µM (inactive); with LXFL 529, 31.5 µM (inactive); in the test with RXF 393 it was 20.8 µM (inactive); in the test on HCC 2998, > 31.6 µM (inactive). Besides, the GI50 with SNB-19 was > 31.6 µM (inactive); in the test on NCI-H226, 35.7 µM (inactive); in the test on HL-60 it was > 46.5 µM (inactive); in the test with A498, 28.9 µM (inactive); with 786-0, 20.7 µM (inactive); in the test with UACC-62, 25.4 µM (inactive). Besides, the GI50 in the test with U-251 is 20.6 µM (inactive).
Consider `CC(=O)C1Cn2c(nc3ccccc32)C[Se]1` (stereo not given), for which the GI50 was 4.29 µM (inactive) with LOX IMVI; 3.28 µM (inactive) in the test with NCI-H522; 4.43 µM (inactive) in the test with SN12C; 2.75 µM (inactive) in the test with NCI-H23; 4.15 µM (inactive) with NCI-H460; 3.44 µM (inactive) in the test on OVCAR-4. The GI50 in the test with MOLT-4 was 2.29 µM (inactive); in the test with IGROV-1, 2.22 µM (inactive); in the test with HT-29, 7.48 µM (inactive); in the test with LXFL 529 it was 3.2 µM (inactive); in the test with RXF 393, 2.34 µM (inactive); in the test with HCC 2998, 10.3 µM (inactive). In addition, the GI50 is 5 µM (inactive) in the test on SNB-19; 3.72 µM (inactive) in the test with NCI-H226; 2.47 µM (inactive) in the test on HL-60; 17.7 µM (inactive) in the test on A498; 3.32 µM (inactive) in the test with 786-0; 1.97 µM (inactive) in the test on UACC-62. Besides, the GI50 in the test with U-251 is 2 µM (inactive).
As for `CC(C)CC(N)C(=O)OCN1C(=O)C2C3C=CC(C2C1=O)C1C2C(=O)N(COC(=O)C(N)CC(C)C)C(=O)C2C31` (stereo not given), the GI50 was > 41.5 µM (inactive) in the test on LOX IMVI; > 100 µM (inactive) with NCI-H522; > 100 µM (inactive) with SN12C; > 100 µM (inactive) in the test on NCI-H23; > 59.7 µM (inactive) with NCI-H460; > 100 µM (inactive) with OVCAR-4. Moreover, the GI50 in the test with MOLT-4, with IGROV-1, in the test on HT-29, in the test with LXFL 529, in the test with RXF 393 and in the test with HCC 2998 was > 100 µM (inactive) in each case. Further, the GI50 in the test on SNB-19 was > 100 µM (inactive); in the test with NCI-H226, > 100 µM (inactive); in the test with HL-60 it was 30.4 µM (inactive); in the test on A498, > 100 µM (inactive); in the test on 786-0, > 100 µM (inactive); in the test on UACC-62, > 100 µM (inactive). Further, the GI50 in the test with U-251 is > 100 µM (inactive).
For the molecule `COc1cc2c(c(OC)c1OC)-c1cccc(=O)cc1C(NC(C)=O)CC2` (stereo not given), the GI50 in the test on LOX IMVI is 0.0449 µM (active); in the test on NCI-H522 it was 0.0382 µM (active); in the test on SN12C, 0.339 µM (active); in the test on NCI-H23, 0.0596 µM (active); in the test with NCI-H460 it was 0.123 µM (active); with OVCAR-4, 32.4 µM (inactive). In addition, the GI50 in the test on MOLT-4 was 0.0553 µM (active); with IGROV-1 it was 0.166 µM (active); with HT-29, 0.0721 µM (active); in the test with LXFL 529 it was 0.125 µM (active); in the test with RXF 393, 0.0543 µM (active); in the test on HCC 2998, 0.075 µM (active). Further, the GI50 in the test with SNB-19 was 0.748 µM (active); in the test with NCI-H226, 0.845 µM (active); in the test on HL-60, 0.0208 µM (active); with A498, 0.332 µM (active); in the test on 786-0, 0.136 µM (active); with UACC-62 it was 0.0474 µM (active). For the same molecule, the GI50 in the test on U-251 is 0.0771 µM (active).
As to `Cc1cc(O)c2c(c1)C[C@@H](O)C1=C2C(=O)c2c(O)ccc(OC3CC(O)C(OC4CC(OC5CCC(OC6CC(O)C(OC7CC(OC8CCC(O)C(C)O8)C(O)C(C)O7)C(C)O6)C(C)O5)C(O)C(C)O4)C(C)O3)c2C1=O` (stereo not given in full), the GI50 in the test on LOX IMVI is 0.0426 µM (active); with NCI-H522, 0.0188 µM (active); in the test with SN12C it was 0.0581 µM (active); in the test with NCI-H23, 0.0661 µM (active); in the test with NCI-H460, 0.238 µM (active); in the test with OVCAR-4, 0.0179 µM (active). Further, the GI50 in the test on MOLT-4 was 0.0352 µM (active); in the test on IGROV-1 it was 0.176 µM (active); in the test with HT-29, 0.092 µM (active); in the test on LXFL 529, 0.0155 µM (active); in the test on RXF 393, 0.0687 µM (active); with HCC 2998, 0.105 µM (active). Besides, the GI50 in the test on SNB-19 was 0.177 µM (active); in the test with NCI-H226, 0.268 µM (active); with HL-60, 0.0364 µM (active); in the test on A498 it was 0.373 µM (active); with 786-0, 0.0644 µM (active); in the test on UACC-62, 0.0702 µM (active). For the same molecule, the figures for the GI50 in the test with U-251 and in the test on NCI/ADR-RES were 0.0387 µM (active) and 0.0308 µM (active), respectively.
